According to PMC5706701, “Development of a homogenous high-throughput assay for inositol hexakisphosphate kinase 1 activity” (PLoS ONE, 2017):
Read-outs that look alike come from different tables or passages of the source. Each block holds one molecule with its values, some of them ahead of it.

Biological target: T1, Human IP6K1 (Homo sapiens, UniProt Q92551)
T1 construct: GST (N, cleaved yes); made in house; host or cells: C43 E. coli, pGEX-6P-2
Assay: IP6K1 high-throughput screen of the Sigma LOPAC (ADP-Glo Max, single point);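 further: final compound concentration 10µM in 5% DMSO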
Format: biochemical

[1] = LOPAC single-point screen, ADP-Glo Max luminescence raw signal per well
[2] = LOPAC single-point screen, Z-score relative to plate average and StDev
[3] = LOPAC single-point screen, Z-score from plate average and StDev
[4] = LOPAC single-point screen, ADP-Glo Max raw signal per well
[5] = LOPAC single-point screen, Z-score from raw signal with plate average and StDev
[6] = Sigma LOPAC single-point screen, ADP-Glo Max raw signal per well
[7] = Sigma LOPAC single-point screen, Z-score from plate average and StDev
[8] = LOPAC single-point screen, Z-score against plate average and StDev

T1 sequence (Q92551 whole entry): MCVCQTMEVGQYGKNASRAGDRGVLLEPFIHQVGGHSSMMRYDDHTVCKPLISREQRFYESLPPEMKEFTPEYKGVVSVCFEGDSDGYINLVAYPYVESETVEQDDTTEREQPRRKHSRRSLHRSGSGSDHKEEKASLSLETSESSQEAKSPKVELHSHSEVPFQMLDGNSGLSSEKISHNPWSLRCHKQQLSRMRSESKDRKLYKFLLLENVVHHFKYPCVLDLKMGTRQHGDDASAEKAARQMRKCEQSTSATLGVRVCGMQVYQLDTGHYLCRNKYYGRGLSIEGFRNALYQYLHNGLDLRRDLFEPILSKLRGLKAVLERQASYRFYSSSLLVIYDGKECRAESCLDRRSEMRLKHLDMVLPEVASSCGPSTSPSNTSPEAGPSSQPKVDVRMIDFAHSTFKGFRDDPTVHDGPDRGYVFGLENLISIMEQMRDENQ

Raw Signal [1]: 51967
Z-score [2]: -0.6499
Compound: Cl.NCCC[C@](N)(C(=O)O)C(F)F (racemic)

Raw Signal [1]: 67025
Z-score [3]: 1.605
Compound: COC(=O)C(N)Cc1ccc(Cl)cc1.Cl (racemic)

Compound: CC(N)c1cccc(Cl)c1Cl.Cl (racemic)
Raw Signal [4]: 54173
Z-score [5]: -0.2019

Raw Signal [1]: 41540
Z-score [2]: -2.16
Compound: CC(N)(Cc1ccc(O)c(O)c1)C(=O)O (racemic)

Compound: O=C(O)[C@H]1CCCN[C@H]1C(=O)O (racemic)
Raw Signal [6]: 60739
Z-score [7]: 0.9161

Raw Signal [6]: 58472
Z-score [7]: 0.4756
Compound: CCCCCCCCCC(=O)N[C@H](CN1CCOCC1)[C@H](O)c1ccccc1.Cl (racemic)

Compound: COC(=O)C(C)(N)Cc1ccc(O)cc1.Cl (racemic)
Raw Signal [4]: 52897
Z-score [5]: -0.2515

Compound: CCCCCCCCCCCCCCCC(=O)NCC(COP(=O)([O-])OCC[N+](C)(C)C)OCC (racemic)
Raw Signal [1]: 63126
Z-score [3]: 1.616

Compound: CCCCCCCCCCCCCCCCCC(=O)NCC(COP(=O)([O-])OCC[N+](C)(C)C)OCC (racemic)
Raw Signal [1]: 62966
Z-score [3]: 1.584

Compound: NC(CP(=O)(O)O)C(=O)O (racemic) [(±)-2-Amino-3-phosphonopropionic acid]
Raw Signal [1]: 53469
Z-score [2]: -0.7827

Compound: NC(CCP(=O)(O)O)C(=O)O (racemic) [(±)-2-Amino-4-phosphonobutyric acid]
Raw Signal [4]: 55594
Z-score [5]: -0.4085

Compound: NC(CCCP(=O)(O)O)C(=O)O (racemic) [(±)-2-Amino-5-phosphonopentanoic acid]
Raw Signal [6]: 60299
Z-score [7]: 0.4202

Compound: NC(CCCCCP(=O)(O)O)C(=O)O (racemic) [(±)-2-Amino-7-phosphonoheptanoic acid]
Raw Signal: 66212
Z-score: 1.462

Compound: Br.Oc1cc2c(c(Cl)c1O)CCNCC2c1ccccc1 (racemic) [(±)-6-Chloro-PB hydrobromide]
Raw Signal [4]: 55203
Z-score [5]: -0.1595

Compound: Br.CCCN(CCC)C1CCc2ccc(O)cc2C1 (racemic) [(±)-7-Hydroxy-DPAT hydrobromide]
Raw Signal [4]: 55055
Z-score [8]: -0.02275

Compound: Br.CCCN(CCC)C1CCc2cccc(O)c2C1 (racemic) [(±)-8-Hydroxy-DPAT hydrobromide]
Raw Signal [4]: 55597
Z-score [8]: 0.08732

Compound: Br.Cc1o[nH]c(=O)c1CC(N)C(=O)O (racemic) [(±)-AMPA hydrobromide]
Raw Signal [4]: 54656
Z-score [5]: -0.1038

Compound: CC1CCN=C(N)S1.Cl (racemic) [(±)-AMT hydrochloride]
Raw Signal [6]: 65458
Z-score [7]: 1.329

Raw Signal [4]: 56468
Z-score [5]: -0.2545
Compound: CC(C)NCC(O)COc1ccc(CC(N)=O)cc1 (racemic) [(±)-Atenolol]

Compound: NCC(CC(=O)O)c1ccc(Cl)cc1 (racemic) [(±)-Baclofen]
Raw Signal [6]: 65373
Z-score [7]: 1.3139

Compound: COC(=O)C1=C(C)NC(C)=C([N+](=O)[O-])C1c1ccccc1C(F)(F)F (racemic) [(±)-Bay K 8644]
Raw Signal [1]: 52853
Z-score [2]: -0.8912

Compound: CN(C)CCC(c1ccc(Br)cc1)c1ccccn1.O=C(O)/C=C\C(=O)O (racemic) [(±)-Brompheniramine maleate]
Raw Signal [4]: 59748
Z-score [8]: 0.3232

Raw Signal [6]: 57693
Z-score [7]: 0.513
Compound: CC(C)(C)C1(O)CCN2CC3c4ccccc4CCc4cccc(c43)C2C1.Cl (racemic) [(±)-Butaclamol hydrochloride]

Compound: CC(C)(C)NCC(O)COc1cccc2[nH]c(=O)[nH]c12.Cl (racemic) [(±)-CGP-12177A hydrochloride]
Raw Signal [6]: 57688
Z-score [7]: 0.512

Compound: O=C(O)C1CN(CCCP(=O)(O)O)CCN1 (racemic) [(±)-CPP]
Raw Signal [6]: 59493
Z-score [7]: 0.8786

Raw Signal [6]: 58189
Z-score [7]: 0.6137
Compound: Br.C=CCN1CCc2c(cc(O)c(O)c2Cl)C(c2ccccc2)C1 (racemic) [(±)-Chloro-APB hydrobromide]

Compound: CN(C)CCC(c1ccc(Cl)cc1)c1ccccn1.O=C(O)/C=C\C(=O)O (racemic) [(±)-Chlorpheniramine maleate]
Raw Signal [6]: 60371
Z-score [7]: 0.4329

Compound: COc1cc(CC(C)N)c(OC)cc1I.Cl (racemic) [(±)-DOI hydrochloride]
Raw Signal [1]: 52125
Z-score [2]: -0.6178

Compound: CNCC(O)c1ccc(O)c(O)c1.Cl (racemic) [(±)-Epinephrine hydrochloride]
Raw Signal: 49297
Z-score: -1.192

Compound: NC1CCN(O)C1=O (racemic) [(±)-HA-966]
Raw Signal [4]: 57782
Z-score [8]: -0.02309

Compound: N[C@H](C(=O)O)c1cc(O)no1 (racemic) [(±)-Ibotenic acid]
Raw Signal [6]: 57640
Z-score [7]: 0.5455

Raw Signal [6]: 57086
Z-score [7]: 0.4524
Compound: CC(C)Cc1ccc(C(C)C(=O)O)cc1 (racemic) [(±)-Ibuprofen]

Raw Signal [6]: 57305
Z-score [7]: 0.4892
Compound: CC(C)NCC(O)c1ccc(O)c(O)c1.Cl (racemic) [(±)-Isoproterenol hydrochloride]

Raw Signal [4]: 52492
Z-score [5]: -0.3195
Compound: COc1ccc(CCN(C)CCCC(C#N)(c2cc(OC)c(OC)c(OC)c2)C(C)C)cc1OC.Cl (racemic) [(±)-Methoxyverapamil hydrochloride]

Compound: COCCc1ccc(OCC(O)CNC(C)C)cc1.O=C(O)C(O)C(O)C(=O)O (racemic) [(±)-Metoprolol (+)-tartrate]
Raw Signal [6]: 61286
Z-score [7]: 1.158

Compound: C[C@@H]1O[C@H](C[N+](C)(C)C)C[C@H]1O.[Cl-] (racemic) [(±)-Muscarine chloride]
Raw Signal [4]: 54548
Z-score [8]: 0.02596

Compound: C=CCN1CC[C@@]2(C)c3cc(O)ccc3C[C@@H]1[C@@H]2C.Cl (racemic) [(±)-N-Allylnormetazocine hydrochloride]
Raw Signal [1]: 52910
Z-score [2]: -0.8812

Compound: O=C(O)C1CCCNC1 (racemic) [(±)-Nipecotic acid]
Raw Signal [6]: 63719
Z-score [7]: 1.023

Compound: COc1cc(C(O)CN)ccc1O.Cl (racemic) [(±)-Normetanephrine hydrochloride]
Raw Signal [4]: 54540
Z-score [8]: 0.02461

Compound: CN1CCN(C2Cc3ccccc3Sc3ccc(Cl)cc32)CC1.O=C(O)/C=C\C(=O)O (racemic) [(±)-Octoclothepin maleate]
Raw Signal [6]: 60782
Z-score [7]: 1.073

Compound: Cl.NCC(O)c1ccc(O)cc1 (racemic) [(±)-Octopamine hydrochloride]
Raw Signal [4]: 52629
Z-score [5]: -0.2965

Compound: CCCN1CCOC2c3cc(O)ccc3OCC21.Cl (racemic) [(±)-PD 128,907 hydrochloride]
Raw Signal [1]: 53572
Z-score [2]: -0.4763

Compound: CC(C)NCC(O)COc1cccc2ccccc12.Cl (racemic) [(±)-Propranolol hydrochloride]
Raw Signal [4]: 53827
Z-score [5]: -0.09519

Compound: Br.C=CCN1CCc2cc(O)c(O)cc2C(c2ccc(O)cc2)C1 (racemic) [(±)-SKF 38393, N-allyl-, hydrobromide]
Raw Signal [4]: 54138
Z-score [5]: -0.3664

Compound: Cl.Oc1cc2c(cc1O)C(c1ccccc1)CNCC2 (racemic) [(±)-SKF-38393 hydrochloride]
Raw Signal [1]: 48418
Z-score [2]: -1.371

Raw Signal [4]: 55236
Z-score [5]: -0.1531
Compound: CC(C)NCC(O)c1ccc(NS(C)(=O)=O)cc1.Cl (racemic) [(±)-Sotalol hydrochloride]

Raw Signal [1]: 63231
Z-score [3]: 1.4
Compound: CCN1CCCC1CNC(=O)c1cc(S(N)(=O)=O)ccc1OC (racemic) [(±)-Sulpiride]

Compound: CNCC(O)c1ccc(O)cc1 (racemic) [(±)-Synephrine]
Raw Signal [4]: 56579
Z-score [8]: 0.1079

Raw Signal [6]: 61241
Z-score [7]: 1.0136
Compound: O=C1c2c(O)cc(O)cc2OC(c2ccc(O)c(O)c2)C1O (racemic) [(±)-Taxifolin]

Raw Signal [4]: 54848
Z-score [5]: -0.2284
Compound: O=C1CCC(N2C(=O)c3ccccc3C2=O)C(=O)N1 (racemic) [(±)-Thalidomide]

Raw Signal [1]: 52849
Z-score [2]: -0.4708
Compound: COc1cc(C(O)C(=O)O)ccc1O (racemic) [(±)-Vanillylmandelic acid]

Compound: COc1ccc(CCN(C)CCCC(C#N)(c2ccc(OC)c(OC)c2)C(C)C)cc1OC.Cl (racemic) [(±)-Verapamil hydrochloride]
Raw Signal [1]: 63315
Z-score [3]: 1.417

Compound: Cl.OC1CCCCC1N1CCC(c2ccccc2)CC1 (racemic) [(±)-Vesamicol hydrochloride]
Raw Signal [1]: 53363
Z-score [2]: -0.5169

Raw Signal [6]: 59328
Z-score [7]: 0.6419
Compound: O=C(O)CCCCC1CCSS1 (racemic) [(±)-alpha-Lipoic Acid]

Compound: CC(N)(C(=O)O)c1ccc(C(=O)O)cc1 (racemic) [(±)-alpha-Methyl-4-carboxyphenylglycine]
Raw Signal [4]: 51961
Z-score [5]: -0.4087

Raw Signal [1]: 68019
Z-score [3]: 2.33
Compound: C=CC(N)CCC(=O)O (racemic) [(±)-gamma-Vinyl GABA]

Compound: CCC1(c2ccc(N)cc2)CCC(=O)NC1=O (racemic) [(±)-p-Aminoglutethimide]
Raw Signal [4]: 58613
Z-score [8]: 0.1233

Raw Signal [1]: 55203
Z-score [2]: -0.4773
Compound: NC(Cc1ccc(Cl)cc1)C(=O)O (racemic) [(±)-p-Chlorophenylalanine]

Compound: CC(C)C1C2CCC(C2)C1N.Cl (racemic) [AGN 192403 hydrochloride]
Raw Signal [1]: 53820
Z-score [2]: -0.7209

Compound: CCCCS(=N)(=O)CCC(N)C(=O)O (racemic) [DL-Buthionine-[S,R]-sulfoximine]
Raw Signal [1]: 66724
Z-score [3]: 1.552

Raw Signal [4]: 55454
Z-score [5]: -0.4331
Compound: N[C@@H]1CONC1=O (racemic) [DL-Cycloserine]
